Assay results: patent publication US20080008658A1, “Contrast Agent Formulations for the Visualization of the Lymphatic System” (Bracco Imaging SpA, priority 2004, published 2008)

Test: Particle size distribution of microbubble suspensions in the Coulter Multisizer, method b (flotation purification from gas-free particles)
Format: physicochemical
Procedure: Dye-containing suspensions of gas-containing ultrasound contrast agents of the invention were analyzed for the particle size distributions in the Coulter® Multisizer (Beckman Coulter Inc. Fullerton, Calif., USA). […] Two methods may be used to determine the distribution of just the gas-containing particles in the compositions of the invention. Method b) The frequency distribution of the diameter of gas-containing particles is obtained after purification of the initial particle suspension from gas-free particles. Purification is achieved by flotation of the gas-containing particles in a centrifuge and substitution of the infranatant containing the gas-free particles with fresh saline. The procedure is executed once or twice depending on the initial contamination by gas-free particles. This method is preferable in those cases wherein the amount of insoluble material in the gas-containing particles exceeds 10% of the total insoluble material, in the initial suspension. The results may be represented either in the form of plots of the frequency distributions (e.g. example 11 and FIG. 1) or as parameters elaborated therefrom, i. e. total microbubble concentration, total microbubble surface, microbubble volume concentration and mean diameter in number (e.g. example 12). […]

- Interference with the regular formation of microbubbles (SonoVue reconstituted with saline containing Evans blue vs regular SonoVue, echographic perspective): negligible
Compound: Cc1cc(-c2ccc(/N=N/c3ccc4c(S(=O)(=O)O)cc(S(=O)(=O)O)c(N)c4c3O)c(C)c2)ccc1/N=N/c1ccc2c(S(=O)(=O)O)cc(S(=O)(=O)O)c(N)c2c1O [Evans blue]
- Stability of the microbubbles (time 0 vs after 3 h, presence of Evans blue): did not jeopardize the stability of the microbubbles
